Assay results: patent US9193699B2, “Apoptosis inducing compounds” (INSTITUT NATIONAL DE LA SANTE ET DE LA RECHERCHE MEDICALE …, priority 2011, dated 2015)
Like-named read-outs stand apart in the source and are kept apart here.

Experiments:
Assay type in all cases: cell-based
[1] = system: Human breast tumor SUM149 cells; experiment: Inhibition of tumor cell growth (alamar blue), SUM149; conditions: 120 h
Experimental: (§1) All biological experiments (Examples 2 to 9) have been performed with recommended cell line specific culture medium. For SUM149 and L226, culture medium is supplemented with 10% Fetal Calf Serum. For HME-1 and MCF-10A, culture medium is supplemented with 5% Horse Serum.
Human breast tumor SUM149 cells (Inflammatory Breast Cancer (IBC) of basal subtype) were plated in a 96 well plate at 3000 cells/100 μL at 37° C. in 5% CO2. Compounds 1, 3, 4, 5, 6, 7, 8, 9, 10, 11, 12, 13, 14 at 10 μM were added at day 0 and day 3. The number of viable cells was determined in triplicate at day 5 by incubating 10 μL of the alamar blue staining solution for 2 hours at 37° C. (FIG. 1).
(§2) Human breast tumor SUM149 cells were plated in a 96 well plate at 3000 cells/100 μL at 37° C. in 5% CO2. Serial dilutions of drugs (compounds 1, 3 or 4) ranging from 20 μM to 300 nM were added at day 0 and day 3. The number of viable cells was determined in triplicate at day 5 by incubating 10 μL of the alamar blue staining solution for 2 hours at 37° C. (FIG. 2).
IC50 values of compounds 1-14 for the inhibition of SUM149 and L226 tumor cells growth were measured (according to the experimental procedure of Examples 2 and 3):
Human breast tumor SUM149 cells were plated in a 96 well plate at 3000 cells/100 μL at 37° C. in 5% CO2 in recommended medium containing 10% FCS or in synthetic medium without FCS. Serial dilutions of drug (compound 4) ranging from 10 μM to 0.16 μM were added at day 0 and day 3. The number of viable cells was determined in triplicate at day 5 by incubating 10 μL of the alamar blue staining solution for 2 hours at 37° C. (FIG. 11). The […] in recommended medium containing 10% FCS was measured at 2 μM, while it was measured at 0.6 μM without FCS.

[2] = system: Human normal mammary epithelial MCF-10A cells; experiment: Effect on growth of normal cells (alamar blue), MCF-10A; conditions: calculated on the basis of cell growth inhibition
Experimental: as §1
as §2, with “normal mammary epithelial MCF-10A” for “breast tumor SUM149”, “5).” for “2).”
IC50 values of compounds 1-14 for the inhibition of MCF-10A and HME-1 normal cells growth were also measured (according to the experimental procedure of Examples 4 and 5): […]

[3] = system: Human breast tumor SUM149 cells; experiment: Annexin V/7-AAD apoptosis with or without Z-VAD-FMK; conditions: 2.5 to 20 μM, 48 h, with Z-VAD-FMK pan-caspases inhibitor
Experimental: Human breast tumor SUM149 cells were plated in dishes at a concentration of 10^6 cells/[…] Cells were treated with compound 3 or compound 4 (2.5 to 20 μM) for 48 h, with or without Z-VAD-FMK, a pan-caspases inhibitor. Cells were double stained with annexinV-FITC and 7-AAD to measure cell apoptosis.

Cancer stem cells (CSCs) = experiment: Aldefluor assay of cancer stem cells (ALDH+ cells), FACS
Experimental: Cancer stem cells (CSCs) are thought to contribute to tumor initiation, maintenance, resistance to therapy, and metastasis progression. Treatment with drugs enrich in resistant CSCs. In vitro, breast CSCs express high level of aldehyde dehydrogenase-1 (ALDH1), which can be detected by using a commercial assay (CSCs are “Aldefluor” positive). Briefly, cells were incubated in Aldefluor assay buffer containing ALDH substrate (BAAA (BODIPY®—aminoacetaldehyde), 1 μmol/L per 1×10^6 cells). Negative control was done in the presence of diethylaminobenzaldehyde (DEAB), a specific ALDH inhibitor. Cells were then incubated for 40 min at 37° C. Cells were analyzed with the LSRII flow cytometer (Becton-Dickinson). PI (Propidium Iodide) exclusion was used to gate viable cells.

[4] = system: Thirty eight validated cells lines; experiment: High throughput cell growth analysis on cell line panel; conditions: panel of cell lines
Experimental: Thirty eight validated cells lines, including BXPC3 cells, DU145 cells, OPM2 cells, U-2-OS cells, PLCPRF5 cells, A549 cells, SUM149 cells, HepG2 cells, L389 cells, HGC27 cells, TOV-112D cells, Messa cells, Karpas 299 cells, A498 cells, HCT-116 cells, H1299 cells, Hep2 cells, DLD1 cells, HUT78 cells, AGS cells, A4573 cells, ACHN cells, Panc-1 cells, A375 cells, BT-20 cells, L226 cells, MDAMB231 cells, U118 cells, PC-3 cells, SW579 cells, CLS354-4 cells, Calu-6 cells, U87MG cells, MeWO cells, HUVEC, HME-1 cells, MCF10-A cells and fibroblasts, were plated at 3000 cells/100 μL at 37° C. in 5% CO2 in recommended medium containing 10% FCS.
Compounds 12, 4, 11, 3, 13, 6, 8, 14, 1 and 7, described in the above examples, and DMSO as a control, were tested at various concentrations and % inhibition of cell growth at 10 μM was more particularly studied.

[5] = calculated on the basis of cell growth inhibition, day 5, alamar blue, read-out: IC50 for the inhibition of SUM149 tumor cells growth

Row | IC50 [1, 5] | IC50 ([1]; recommended medium containing 10% FCS, day 5, read-out: IC50 of SUM149 cell growth in recommended medium) | IC50 ([1]; synthetic medium without FCS, day 5, read-out: IC50 of SUM149 cell growth without FCS) | Structure (SMILES) | IC50 [2] | effect of Z-VAD treatment on compound induced apoptosis (Annexin V positive cells) [3] | pool of CSC (ALDH+ cells) after treatment (Cancer stem cells (CSCs); 0.6 μM, DMSO control 2.6%) | aldefluor ratio (percent ALDH+ cells treated vs DMSO) (Cancer stem cells (CSCs); FIG. 12B) | cell lines studied that were sensitive [4] | IC50 ([4]; recommended medium containing 10% FCS, read-out: IC50 of cell growth inhibition on cell line panel)
1 | 2500 nM | 2000 nM | 600 nM | Cc1cc(C)c(C)c(S(=O)(=O)N2CCSC(C)(C)[C@@H]2C(=O)NO)c1C [Compound 4, (3S)—N-hydroxy-4-[(2,3,5,6-tetramethylphenyl)sulfonyl]-2,2-dimethyl-3-thiomorpholine carboxamide] | 20 µM | fully impaired | – | – | – | –
2 | 2500 nM | – | – | Cc1c(C)c(C)c(S(=O)(=O)N2CCSC(C)(C)[C@@H]2C(=O)NO)c(C)c1C [Compound 12, (3S)—N-hydroxy-4-[(2,3,4,5,6-pentamethylphenyl)sulfonyl]-2,2-dimethyl-3-thiomorpholine carboxamide] | 15 µM | – | 0.4% | reduces the aldefluor ratio | 86% | < 1000 nM
